{
  "source": "patent US20110224147A1",
  "about": "“METHODS AND COMPOSITIONS” (Relevare Aust. Pyt. Ltd., priority 2008, published 2011)",
  "key": {"[1]": {"tested_on": "carrageenan-induced hyperalgesia", "test": "Carrageenan paw inflammation test (paw withdrawal latency, noxious heat)", "assay_type": "in vivo, rat", "settings": "for antinociception, significance vs vehicle controls: p>0.05", "description": "(§1) All experiments were performed on male Wistar rats, weight 170-220 g for experiments investigating sedation and antinociception using the carrageenan inflammation paradigm and weight 120-200 g for experiments evaluating sedation and antinociception using the diabetic neuropathy model. The experiments were performed in an observer-blinded fashion with parallel positive placebo (gabapentin) and negative placebo (vehicle) treatment controls. All drug solutions and vehicle were given intraperitoneally (ip) in a volume of 1.0 ml.\nTwo tests for antinociception were used: the carrageenan paw inflammation test; and the streptozotocin-induced diabetic neuropathy model. Inflammation of the right hind paw was induced by an intraplantar injection of carrageenan (100 μl of a 2% w/v carrageenan solution in saline). Time was allowed for paw inflammation to develop (2 hours). Paw withdrawal latencies were measured using noxious heat from an infrared beam focused onto the plantar surface of the right hind paw in unrestrained animals using apparatus from Ugo Basile (via G. Borghi 43, 21025 Comerio VA—Italy). The method used was originally described by Hargreaves et al, Pain 32:77-88, 1988.\nPaw withdrawal latencies were measured at 10 min intervals before the induction of inflammation with carrageenan injection until 3 stable baseline readings were obtained (baseline readings—see FIG. 1). […] A test drug or drug combination was injected intraperitoneally and paw withdrawal values were measured at 10-minute intervals for the following 30 minutes (test drug readings—see FIG. 1).\nThe following drug treatments were given ip to separate groups of rats: • vehicle controls, n=63 • CNSB002 at dose range 0.5 mg/kg to 10 mg/kg alone, n=14 each • morphine at dose range 0.2 mg/kg to 3.2 mg/kg alone, n=10 each • combinations of CNSB002 at 5 mg/kg with morphine at 0.2, 0.4, 0.8, 1.6 and 3.2 mg/kg, n=10 each • gabapentin alone at 50 mg/kg, n=20 • combination of gabapentin at 50 mg/kg with morphine 3.2 mg/kg, n=20\nDrug and placebo/vehicle treatments were compared statistically using ANOVA with Tukey-Kramer post hoc test."}, "[2]": {"tested_on": "diabetic rats", "test": "Open field activity monitor (sedation), diabetic rats", "description": "as §1\n(§2) Measurement of the movements of a freely moving rat in an open field activity monitor was used. […] The maximum non-sedating doses of each compound alone and in combination were first determined in normal rats and then those doses were tested for sedation in diabetic rats. This was done to be sure that there was no sedation caused by the drugs, particularly in diabetics that are known to be more susceptible to CNS depressants.\n(§3) The open field activity monitor (MedAssociates Inc. St. Albans, Vt. 05478, USA) is an enclosure with a quiet and darkened environment. It contains 16 intersecting beams of infrared light. Interruptions of beams by individual rats moving around the enclosure were recorded by computer. These measurements were converted to the total rest time in seconds during a 20 min period in the apparatus. Rest times of drug-treated rats were compared with vehicle-treated controls using ANOVA with Dunnet post hoc test.\n(§4) Animals naïve to drug treatment were acclimatized to the lab environment and individual rats were selected randomly from a group one at a time. They were injected (ip) with vehicle, a test drug dose or a combination of drugs in an operator-blinded fashion. Five minutes after the ip injection each rat was placed in the open field activity monitor for a 20-min period.\n(§5) Groups of rats were tested with the open field activity monitor as above with the following ip treatments: • vehicle controls, n=121 experiments • CNSB002 at doses 10 and 20 mg/kg, n=20 and 10 experiments • morphine at doses 6.4 and 3.2 mg/kg, n=21 and 20 experiments • a combination of CNSB002 at 10 mg/kg with morphine at 3.2 mg/kg, n=21 experiments • a combination of CNSB002 at 5.0 mg/kg with morphine at 3.2 mg/kg, n=19 experiments • gabapentin at doses of 100 and 50 mg/kg, n=26 each experiments • a combination of GABApentin at 50 mg/kg with morphine at 3.2 mg/kg, n=19 experiments\nRats were injected ip with streptozotocin (STZ; […] total dose) dissolved in 0.9% w/v sodium chloride solution. The 150 mg dose was given in two 75 mg/kg injections on consecutive days. Diabetes was confirmed one week after injection of STZ by measurement of tail vein blood glucose levels with AccuCheck Active test strips and a reflectance colorimeter (AccuCheck Glucometer, Roche). Only animals with final blood glucose levels ≧15 mM were deemed to be diabetic. The rats were retested for hyperglycaemia once per week to confirm continued high blood glucose readings. Hyperalgesia was assessed by measurement of paw flick latency using the radiant heat plantar test described previously by Hargreaves et al, 1988 supra."}, "[3]": {"tested_on": "normal rats", "test": "Open field activity monitor (sedation), normal rats", "description": "as §1, §2, §3, §4, §5"}, "[4]": {"tested_on": "hyperalgesia caused by STZ-induced diabetic neuropathy", "test": "Streptozotocin-induced diabetic neuropathy model (paw flick latency, radiant heat plantar test)", "assay_type": "in vivo, rat", "settings": "diabetic rats"}, "[5]": {"settings": "male, Wistar, rat, in vivo, ip, 10 mg/kg, 20 min"}, "[6]": {"settings": "CNSB002 10 mg/kg ip alone, p<0.01"}, "[7]": {"settings": "gabapentin 50 mg/kg ip alone, p<0.01"}, "[8]": {"settings": "morphine 3.2 mg/kg ip alone, p<0.05"}},
  "note": "Marks after values point to notes of the source that are not given here.",
  "data": [
    {"molecule": "CC(C)(C)c1cc(CN2CCN(CC(O)c3ccc(Cl)cc3)CC2)cc(C(C)(C)C)c1O", "note": "(stereo not shown) [CNSB002, 1-(2-(4-chlorophenyl)-2-hydroxy)ethyl-4-(3,5-bis(1,1-dimethyl)-4-hydroxyphenyl)methylpiperazine]", "values": [
      {"measurement": "reversal of carrageenan-induced hyperalgesia", "setting": "[1]; CNSB002 5 mg/kg ip alone", "result": 35, "unit": "%"},
      {"measurement": "reversal of carrageenan-induced hyperalgesia", "setting": "[1]; CNSB002 10 mg/kg ip alone", "result": 35, "unit": "%"},
      {"measurement": "antinociception, significance vs vehicle controls", "setting": "[1]; CNSB002 0.5-10 mg/kg ip alone", "result": "No dose of gabapentin or CNSB002 administered alone caused statistically-significant antinociception"},
      {"measurement": "antinociception compared with CNSB002 at 0.5 mg/kg", "setting": "[1]; CNSB002 5 or 10 mg/kg ip alone", "result": "significantly greater"},
      {"measurement": "total rest time during a 20 min period (mean)", "setting": "[2]; [5]", "result": 1005.6, "unit": "s"},
      {"measurement": "sedation vs vehicle controls", "setting": "[2]; rat, in vivo, ip, 10 mg/kg", "result": "not sedating"},
      {"measurement": "total rest time during a 20 min period (mean)", "setting": "[3]; [5]", "result": 851.2, "unit": "s"},
      {"measurement": "total rest time during a 20 min period (mean)", "setting": "[3]; male, Wistar, rat, in vivo, ip, 20 mg/kg, 20 min", "result": "1001.2* seconds"},
      {"measurement": "sedation vs vehicle controls", "setting": "[3]; rat, in vivo, ip, 10 mg/kg", "result": "did not cause sedation"},
      {"measurement": "sedation vs vehicle controls", "setting": "[3]; rat, in vivo, ip, 20 mg/kg", "result": "sedating"},
      {"measurement": "antinociception compared with CNSB002 at 0.5, 1.0 and 2.5 mg/kg", "setting": "[4]; CNSB002 10 mg/kg ip alone, not vs 5 mg/kg", "result": "significantly greater"},
      {"measurement": "antinociception, significance vs vehicle controls", "setting": "[4]; [6]", "result": "significant antinociceptive effect"},
      {"measurement": "reversal of hyperalgesia", "setting": "[4]; [6]", "result": 26, "unit": "%"},
      {"measurement": "antinociception, significance vs vehicle controls", "setting": "[4]; CNSB002 doses other than 10 mg/kg (0.5-5 mg/kg) ip alone", "result": "No other doses of CNSB002 administered alone caused significant antinociception"}
    ]},
    {"molecule": "NCC1(CC(=O)O)CCCCC1", "note": "[gabapentin]", "values": [
      {"measurement": "antinociception, significance vs vehicle controls", "setting": "[1]; gabapentin 50 mg/kg ip alone", "result": "No dose of gabapentin or CNSB002 administered alone caused statistically-significant antinociception"},
      {"measurement": "total rest time during a 20 min period (mean)", "setting": "[2]; diabetic rats, gabapentin 50 mg/kg ip alone, Table 2A", "result": 985.8, "unit": "s"},
      {"measurement": "sedation vs vehicle controls", "setting": "[2]; diabetic rats, gabapentin 50 mg/kg ip alone, p>0.05", "result": "not sedating"},
      {"measurement": "total rest time during a 20 min period (mean)", "setting": "[2]; diabetic rats, gabapentin 100 mg/kg ip alone, Table 2A", "result": 941.2, "unit": "s"},
      {"measurement": "sedation vs vehicle controls", "setting": "[2]; diabetic rats, gabapentin 100 mg/kg ip alone, p>0.05", "result": "not sedating"},
      {"measurement": "total rest time during a 20 min period (mean)", "setting": "[3]; normal rats, gabapentin 50 mg/kg ip alone, Table 1C", "result": 753.0, "unit": "s"},
      {"measurement": "sedation vs vehicle controls", "setting": "[3]; normal rats, gabapentin 50 mg/kg ip alone, p>0.05", "result": "did not cause sedation"},
      {"measurement": "total rest time during a 20 min period (mean)", "setting": "[3]; normal rats, gabapentin 100 mg/kg ip alone, Table 1C", "result": "881.6* seconds"},
      {"measurement": "sedation vs vehicle controls", "setting": "[3]; normal rats, gabapentin 100 mg/kg ip alone, p<0.01", "result": "caused significant sedation"},
      {"measurement": "antinociception, significance vs vehicle controls", "setting": "[4]; [7]", "result": "equally significant antinociception"},
      {"measurement": "reversal of hyperalgesia", "setting": "[4]; [7]", "result": 26, "unit": "%"}
    ]},
    {"molecule": "CN1CC[C@]23c4c5ccc(O)c4O[C@H]2[C@@H](O)C=C[C@H]3[C@H]1C5", "note": "[morphine]", "values": [
      {"measurement": "reversal of carrageenan-induced hyperalgesia", "setting": "[1]; morphine 3.2 mg/kg ip alone", "result": 24, "unit": "%"},
      {"measurement": "antinociception, significance vs vehicle controls", "setting": "[1]; morphine 0.2-3.2 mg/kg ip alone", "result": "caused no significant antinociception"},
      {"measurement": "total rest time during a 20 min period (mean)", "setting": "[2]; diabetic rats, morphine 3.2 mg/kg ip alone, Table 2A", "result": 943.6, "unit": "s"},
      {"measurement": "sedation vs vehicle controls", "setting": "[2]; diabetic rats, morphine 3.2 mg/kg ip alone, p>0.05", "result": "not sedating"},
      {"measurement": "total rest time during a 20 min period (mean)", "setting": "[2]; diabetic rats, morphine 6.4 mg/kg ip alone, Table 2B", "result": "972.6* seconds"},
      {"measurement": "sedation vs vehicle controls", "setting": "[2]; diabetic rats, morphine 6.4 mg/kg ip alone, p<0.01", "result": "caused sedation"},
      {"measurement": "sedation vs vehicle controls", "setting": "[3]; normal rats, doses of morphine up to 6.4 mg/kg ip", "result": "sedation was not caused"},
      {"measurement": "total rest time during a 20 min period (mean)", "setting": "[3]; normal rats, morphine 3.2 mg/kg ip alone, Table 1B", "result": 961.0, "unit": "s"},
      {"measurement": "sedation vs vehicle controls", "setting": "[3]; normal rats, morphine 3.2 mg/kg ip alone, p>0.05 unpaired t test", "result": "did not cause sedation"},
      {"measurement": "antinociception, significance vs vehicle controls", "setting": "[4]; [8]", "result": "significant antinociceptive effect"},
      {"measurement": "reversal of hyperalgesia", "setting": "[4]; [8]", "result": 30, "unit": "%"},
      {"measurement": "antinociception, significance vs vehicle controls", "setting": "[4]; morphine alone ip, doses below the highest dose 3.2 mg/kg, p>0.05", "result": "No dose of morphine alone caused significant antinociception"}
    ]}
  ]
}
